# Measured values taken from patent US8481576B2 (Abbott GmbH & Co. KG, priority 2004, dated 2013).
# Where a name gives a salt, the structure may show the parent alone.
# Biological target: T1, h5-HT5A receptor (Homo sapiens, UniProt P47898)
# T1 construct: expressed in transfected cells; host or cells: HEK293
# Test: [3H]5-CT binding assay h5-HT5A
# Details: membranes from HEK293 cells expressing h5-HT5A, 2.5 nM [3H]5-CT; read-out: Binding affinity 5-HT5A (Ki)
# Summary of the method: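 Membranes from HEK293 cells stably expressing h5-HT5A incubated with 2.5 nM [3H]5-CT and compound in 100 mM Tris-HCl pH 7.7, 1 mM EDTA, 75 min at 30° C. Nonspecific binding with 10 μM methiothepine; filtration and scintillation counting give Ki or IC50.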
# T1 sequence (P47898 whole entry): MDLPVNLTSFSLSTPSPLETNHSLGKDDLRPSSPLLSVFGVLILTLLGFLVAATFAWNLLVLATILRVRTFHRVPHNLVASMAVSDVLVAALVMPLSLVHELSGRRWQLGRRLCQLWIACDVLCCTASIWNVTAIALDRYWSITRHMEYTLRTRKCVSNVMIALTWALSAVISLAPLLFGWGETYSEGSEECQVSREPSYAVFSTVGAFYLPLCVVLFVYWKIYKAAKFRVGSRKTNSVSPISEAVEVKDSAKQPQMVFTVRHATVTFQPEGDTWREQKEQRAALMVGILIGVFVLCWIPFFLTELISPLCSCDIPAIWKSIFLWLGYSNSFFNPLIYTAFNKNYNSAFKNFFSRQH
row,Compound,Ki [nM]
1,"N-4H-chromeno[4,3-d][1,3]thiazole-2-yl-N′-(2,6-dimethoxybenzyl)guanidine [Example 222]",< 50
2,"COc1cccc(F)c1CNC(=N)Nc1cc(C(C)(C)C)[nH]n1 [Example 210, N-(5-tert-butyl-1H-pyrazole-3-yl)-N′-(2-fluoro-6-methoxybenzyl)guanidine]",< 50
3,"COc1cccc(OC)c1CNC(=N)Nc1nc(C)c(C(=O)N(C)C)s1 [Example 102, 2-{[[(2,6-dimethoxybenzyl)amino](imino)methyl]amino}-N,N,4-trimethyl-1,3-thiazole-5-carboxamide]",< 50
4,"CCNC(=Nc1nccs1)NCc1ccccc1OC [Example 26, N-ethyl-N′-(2-methoxybenzyl)-N″-1,3-thiazole-2-ylguanidine (2E)-But-2-endioate]",> 500
5,"COc1cccc(OC)c1CNC(=N)Nc1nc(-c2ccc(C#N)cc2)cs1 [Example 60, N-[4-(4-cyanophenyl)-1,3-thiazole-2-yl]-N′-(2,6-dimethoxybenzyl)guanidine]",< 50
6,"COc1ccc(-c2csc(NC(=N)NCc3c(OC)cccc3OC)n2)cc1 [Example 58, N-(2,6-dimethoxybenzyl)-N′-[4-(4-methoxyphenyl)-1,3-thiazole-2-yl]guanidine]",< 50
7,"COc1cccc(OC)c1CNC(=N)Nc1nc(-c2ccc(F)cn2)cs1 [Example 144, N-(2,6-dimethoxybenzyl)-N′-[4-(5-fluoropyridine-2-yl)-1,3-thiazole-2-yl]guanidine]",< 50
8,"COc1cccc(OC)c1CNC(=N)Nc1nc2ccccc2s1 [Example 27, N-1,3-benzothiazole-2-yl-N′-(2,6-dimethoxybenzypguanidine (2E)-But-2-endioate]",< 50
9,"COc1cccc(OC)c1CNC(=N)Nc1nc(-c2ccc(F)c(F)c2)cs1 [Example 87, N-[4-(3,4-difluorophenyl)-1,3-thiazole-2-yl]-N′-(2,6-dimethoxybenzyl)guanidine hydrobromide]",< 50
10,"COc1ccccc1CNC(=N)Nc1nc(C)cs1 [Example 39, N-(2-methoxybenzyl)-N′-(4-methyl-1,3-thiazole-2-yl)guanidine (2E)-But-2-endioate]",< 50
11,"COc1ccccc1CNC(=N)Nc1nc(-c2ccccc2)co1 [Example 197, N-(2-methoxybenzyl)-N′-(4-phenyl-1,3-oxazole-2-yl)guanidine]",50 to 500
12,"COc1ccccc1CNC(=N)Nc1nc2ccc(C)cc2s1 [Example 168, N-(2-methoxybenzyl)-N′-(6-methyl-1,3-benzothiazole-2-yl)guanidine fumarate]",50 to 500
13,"COc1cccc(OC)c1CNC(=N)Nc1nc(-c2ccccc2)c[nH]1 [Example 187, N-(2,6-dimethoxybenzyl)-N′-(4-phenyl-1H-imidazole-2-yl)guanidine acetate]",< 50
14,"COc1cccc(C)c1CNC(=N)Nc1cc(C(C)(C)C)[nH]n1 [Example 216, N-(5-tert-butyl-1H-pyrazole-3-yl)-N′-(2-methoxy-6-methylbenzyl)guanidine]",< 50
15,"COc1ccc(F)cc1-c1csc(NC(=N)NCc2c(OC)cccc2OC)n1 [Example 112, hydrobromide]",< 50
16,"COc1ccccc1CNC(=N)Nc1nc(-c2ccccc2)cs1 [Example 31, N-(2-methoxybenzyl)-N′-(4-phenyl-1,3-thiazole-2-yl)guanidine]",50 to 500
17,"COc1cccc(OC)c1CNC(=N)Nc1nc(CNC(=O)OC(C)(C)C)cs1 [Example 125, tert-butyl [(2-{[[(2,6-dimethoxybenzyl)amino](imino)methyl]amino}-1,3-thiazole-4-yl)methyl]carbamate]",< 50
18,"COc1cccc(OC)c1CNC(=N)Nc1nc(-c2cc(C(F)(F)F)cc(C(F)(F)F)c2)cs1 [Example 19, N-{4-[3,5-bis(trifluoromethyl)phenyl]-1,3-thiazole-2-yl}-N′-(2,6-dimethoxybenzyl)guanidine hydrobromide]",50 to 500
19,"COc1cccc(OC)c1CNC(=N)Nc1nc(C(=O)NC(C)C)cs1 [Example 196, 2-{[[(2,6-dimethoxybenzyl)amino](imino)methyl]amino}-N-isopropyl-1,3-thiazole-4-carboxamide]",< 50
20,"COc1cccc(OC)c1CNC(=N)Nc1nc(C)cs1 [Example 32, N-(2,6-dimethoxybenzyl)-N′-(4-methyl-1,3-thiazole-2-yl)guanidine]",< 50
21,"COc1cccc(OC)c1CNC(=N)Nc1nc(-c2ccc(Cl)s2)cs1 [Example 77, N-[4-(5-chloro-2-thienyl)-1,3-thiazole-2-yl]-N′-(2,6-dimethoxybenzyl)guanidine hydrobromide]",< 50
22,"COc1cccc(CNC(=N)Nc2nccs2)c1 [Example 14, N-(3-methoxybenzyl)-N′-1,3-thiazole-2-ylguanidine hydrochloride]",50 to 500
23,"N=C(NCc1ccccc1OCc1ccccc1)Nc1nccs1 [Example 17, N-[2-(benzyloxy)benzyl]-N′-1,3-thiazole-2-ylguanidine]",50 to 500

row,Compound,Ki [nM]
1,"COc1cccc(OC)c1CNC(=N)Nc1nnc(-c2ccccc2)s1 [Example 176, N-(2,6-dimethoxybenzyl)-N′-(5-phenyl-1,3,4-thiadiazole-2-yl)guanidine]",50 to 500
2,"COc1cccc(OC)c1CNC(=N)Nc1nc2c(s1)CCCC2 [Example 94, N-(2,6-dimethoxybenzyl)-N′-(4,5,6,7-tetrahydro-1,3-benzothiazole-2-yl)guanidine acetate]",< 50
3,"COc1cccc(OC)c1CNC(=N)Nc1n[nH]c2ccccc12 [Example 180, N-(2,6-dimethoxybenzyl)-N′-1H-indazole-3-ylguanidine acetate]",< 50
4,"COc1ccccc1CNC(=N)Nc1ccn(-c2ccccc2)n1 [Example 220, N-(2-methoxybenzyl)-N′-(1-phenyl-1H-pyrazole-3-yl)guanidine]",< 50
5,"COc1ccccc1CNC(=N)Nc1nc(-c2ccc(NS(C)(=O)=O)cc2)cs1 [Example 104, N-{4-[2-({imino[(2-methoxybenzyl)amino]methyl}amino)-1,3-thiazole-4-yl]phenyl}methanesulfonamide]",> 500
6,"COc1cccc(OC)c1CNC(=N)Nc1nc2cc(C)c(C)cc2s1 [Example 172, N-(2,6-dimethoxybenzyl)-N′-(5,6-dimethyl-1,3-benzothiazole-2-yl)guanidine fumarate]",< 50
7,"CCc1csc(NC(=N)NCc2c(OC)cccc2OC)n1 [Example 3, N-(2,6-dimethoxybenzyl)-N′-(4-ethyl-1,3-thiazole-2-yl)-guanidine]",< 50
8,"COc1cccc(OC)c1CNC(=N)Nc1nc(C(=O)NCc2ccccc2)cs1 [Example 194, N-benzyl-2-{[[(2,6-dimethoxybenzyl)amino](imino)methyl]amino}-1,3-thiazole-4-carboxamide]",< 50
9,"COc1cccc(OC)c1CNC(=N)Nc1nccs1 [Example 5, N-(2,6-dimethoxybenzyl)-N′-1,3-thiazole-2-ylguanidine]",< 50
10,"COc1ccccc1CNC(=N)Nc1nc(-c2ccccc2F)cs1 [Example 98, N-[4-(2-fluorophenyl)-1,3-thiazole-2-yl]-N′-(2-methoxybenzyl)guanidine]",50 to 500
11,"COc1cccc(OC)c1CNC(=N)Nc1nc2c(s1)CNCC2 [Example 223, N-(2,6-dimethoxybenzyl)-N′-(4,5,6,7-tetrahydro[1,3]thiazolo[5,4-c]pyridine-2-yl)guanidine]",< 50
12,"COc1cccc(C)c1CNC(=N)Nc1nc(-c2ncccn2)cs1 [Example 139, N-(2-methoxy-6-methylbenzyl)-N′-(4-pyrimidine-2-yl-1,3-thiazole-2-yl)guanidine]",< 50
13,"COc1cccc(OC)c1CNC(=N)Nc1nc2c(s1)CN(Cc1ccccc1)CC2 [Example 226, N-(5-benzyl-4,5,6,7-tetrahydro[1,3]thiazolo[5,4-c]pyridine-2-yl)-N′-(2,6-dimethoxybenzyl)guanidine]",< 50
14,"COc1cccc(OC)c1CNC(=N)Nc1nc(-c2ccc(F)cc2)cs1 [Example 56, N-(2,6-dimethoxybenzyl)-N′-[4-(4-fluorophenyl)-1,3-thiazole-2-yl]guanidine]",< 50
15,"COc1ccccc1CNC(=N)Nc1nnc(C)s1 [Example 178, N-(2-methoxybenzyl)-N′-(5-methyl-1,3,4-thiadiazole-2-yl)guanidine]",50 to 500
16,"COc1cccc(OC)c1CNC(=N)Nc1nc(C23CC4CC(CC(C4)C2)C3)cs1 [Example 85, N-[4-(1-adamantyl)-1,3-thiazole-2-yl]-N′-(2,6-dimethoxybenzyl)guanidine hydrobromide]",< 50
17,"COc1ccccc1CNC(=N)Nc1nc(N2CCCCC2)cs1 [Example 166, 1-[2-({imino[(2-methoxybenzyl)amino]methyl}amino)-1,3-thiazole-4(5H)-ylidene]piperidinium chloride]",> 500
18,"COc1cccc(OC)c1CNC(=N)Nc1nc(-c2ccc(N3CCCC3)cc2)cs1 [Example 63, N-(2,6-dimethoxybenzyl)-N′-[4-(4-pyrrolidine-1-ylphenyl)-1,3-thiazole-2-yl]guanidine hydrobromide]",< 50
19,"COc1cccc(OC)c1CNC(=N)Nc1nc(-c2ccccn2)cs1 [Example 42, N-(2,6-dimethoxybenzyl)-N′-(4-pyridine-2-yl-1,3-thiazole-2-yl)guanidine (2E)-But-2-endioate]",< 50
20,"COc1cccc(OC)c1CNC(=N)Nc1ncc(-c2ccccc2)s1 [Example 66, N-(2,6-dimethoxybenzyl)-M-(5-phenyl-1,3-thiazole-2-yl)guanidine hydrobromide]",< 50
21,"COc1cccc(OC)c1CNC(=N)Nc1nc(C2CCN(S(C)(=O)=O)CC2)cs1 [Example 163, N-(2,6-dimethoxybenzyl)-N′-{4-[1-(methylsulfonyl)piperidine-4-yl]-1,3-thiazole-2-yl}guanidine]",< 50
22,"COc1ccccc1CNC(=N)Nc1cc(C(C)(C)C)[nH]n1 [Example 200, N-(5-tert-butyl-1H-pyrazole-3-yl)-N′-(2-methoxy-benzyl)-guanidine]",50 to 500
